Reference: patent publication US20210253538A1, “AMINOPYRAZINES AND RELATED COMPOUNDS USEFUL AS MITOCHONDRIAL UNCOUPLERS” (VIRGINIA TECH INTELLECTUAL PROPERTIES, INC., priority 2018, published 2021)

Key:
[1] = tested on: whole cells (NMuLi, C2C12, and L6 cells, isolated cardiomyocytes, human primary fibroblasts); experiment: Oxygen consumption rate (OCR) in whole cells, Seahorse XF-24 Flux Analyzer; format: cell-based
Method: Biological activities of the compounds synthesized is determined by determining increase in oxygen consumption rate (OCR).
Oxygen consumption rate (OCR) in whole cells is measured in general accordance with the method of Kenwood B M et al. (Mol. Met. (2014) 3: 114-123).
OCR is measured using a Seahorse XF-24 Flux Analyzer (Seahorse Biosciences, North Billerica, Mass.). NMuLi, C2C12, and L6 cells are seeded in a Seahorse 24-well tissue culture plate at a density of 3.5×10^4 cells/well, isolated cardiomyocytes at a density of 4×10^4 cells/well, and human primary fibroblasts at a density of 1.1×10^4 cells/well. The cells are then allowed to adhere for 24 h. Prior to the assay, the media is changed to unbuffered DMEM containing pyruvate and glutamine (Gibco #12800-017, pH=7.4 at 37° C.) and the cells are equilibrated for 30 mins at 37° C. Compounds are injected during the assay and OCR is measured using 2 min measurement periods.
2-3 wells are used per condition and averaged over three plates (n=6-9). Statistical significance is determined by two-way ANOVA with Bonferroni's posttest.

[2] = patients consuming ~300 mg/d, over several months, without changes in food intake; cited from earlier work

Structure (SMILES)	increase in oxygen consumption rate (OCR) [1]	Average weight shed [2]
FC(F)(F)Oc1ccc(Nc2ncc(C(F)(F)F)nc2OCc2ccccc2)cc1 [Compound 3-18, 3-(Benzyloxy)-N-(4-(Trifluoromethoxy)Phenyl)-5-(Trifluoromethyl)Pyrazin-2-Amine]	observable activity	–
Oc1nc(C(F)(F)F)cnc1Nc1ccc(OC(F)(F)F)cc1 [Compound 3-19, 3-((4-(Trifluoromethoxy)Phenyl)Amino)-6-(Trifluoromethyl)Pyrazin-2-Ol]	observable activity	–
Oc1nc(-c2ccc(C(F)(F)F)cc2)cnc1Nc1ccc(OC(F)(F)F)cc1 [Compound 3-26, 3-((4-(Trifluoromethoxy)Phenyl)Amino)-6-(4-(Trifluoromethyl)Phenyl) Pyrazin-2-Ol]	observable activity	–
O=[N+]([O-])c1ccc(O)c([N+](=O)[O-])c1 [DNP, 2,4-dinitrophenol]	–	1.5 pounds per week
